Reference: article PMC9103758 (International Journal of Molecular Sciences, 2022)
Entries after “also recorded” stand apart in the source; their conditions may differ.

How the values were obtained:
hERG K+ channel = molecular target: T1, hERG K+ channel (Homo sapiens, UniProt Q12809); assay: FluxOR thallium flux assay in HEK293T cells expressing hERG; type: cell-based
T1 construct: expressed in transfected cells; called HEK293
Method: (C) Summary of dose-response (mean ± S.E., n = 5). […] (F) Summary of dose−response (mean ± S.E., n = 6).
HEK293 cells stably expressing human Kv11.1 (hERG) were cultured in 96-well plates. After 48 h, the cells were incubated at 28 °C for 4 h to increase the membrane expression of hERG. The culture medium was replaced with a 80 μL/well of FluxOR (Invitrogen, Waltham, MA, USA) loading buffer and incubated for 1 h at 37 °C in the dark. After removing the loading buffer, 100 μL of assay buffer was added to each well. […] FluxOR fluorescence (excitation/emission: 490/525 nm) was recorded for 4 s before the addition of 20 μL of stimulus buffer containing thallium ions, and the fluorescence was recorded. FluxOR fluorescence was recorded and analyzed using the FLUOstar Omega microplate reader (BMG Labtech, Ortenberg, Germany) and the MARS Data Analysis Software (BMG Labtech, Ortenberg, Germany). All buffers were prepared according to the manufacturer’s instructions.

ANO1 = molecular target: T2, ANO1 (Homo sapiens, UniProt Q5XXA6, DEL476-501); assay: Apical membrane current of ANO1 in FRT cells expressing human ANO1; type: cell-based; details: 3 μM Eact
T2 construct: expressed in transfected cells; host or cells: Fisher rat thyroid (FRT) cells; The YFP assay uses FRT-ANO1-YFP cells, which also carry the halide sensor
T2 sequence (Q5XXA6 with tags, fused parts or gaps isoform Q5XXA6-5 DEL539-564): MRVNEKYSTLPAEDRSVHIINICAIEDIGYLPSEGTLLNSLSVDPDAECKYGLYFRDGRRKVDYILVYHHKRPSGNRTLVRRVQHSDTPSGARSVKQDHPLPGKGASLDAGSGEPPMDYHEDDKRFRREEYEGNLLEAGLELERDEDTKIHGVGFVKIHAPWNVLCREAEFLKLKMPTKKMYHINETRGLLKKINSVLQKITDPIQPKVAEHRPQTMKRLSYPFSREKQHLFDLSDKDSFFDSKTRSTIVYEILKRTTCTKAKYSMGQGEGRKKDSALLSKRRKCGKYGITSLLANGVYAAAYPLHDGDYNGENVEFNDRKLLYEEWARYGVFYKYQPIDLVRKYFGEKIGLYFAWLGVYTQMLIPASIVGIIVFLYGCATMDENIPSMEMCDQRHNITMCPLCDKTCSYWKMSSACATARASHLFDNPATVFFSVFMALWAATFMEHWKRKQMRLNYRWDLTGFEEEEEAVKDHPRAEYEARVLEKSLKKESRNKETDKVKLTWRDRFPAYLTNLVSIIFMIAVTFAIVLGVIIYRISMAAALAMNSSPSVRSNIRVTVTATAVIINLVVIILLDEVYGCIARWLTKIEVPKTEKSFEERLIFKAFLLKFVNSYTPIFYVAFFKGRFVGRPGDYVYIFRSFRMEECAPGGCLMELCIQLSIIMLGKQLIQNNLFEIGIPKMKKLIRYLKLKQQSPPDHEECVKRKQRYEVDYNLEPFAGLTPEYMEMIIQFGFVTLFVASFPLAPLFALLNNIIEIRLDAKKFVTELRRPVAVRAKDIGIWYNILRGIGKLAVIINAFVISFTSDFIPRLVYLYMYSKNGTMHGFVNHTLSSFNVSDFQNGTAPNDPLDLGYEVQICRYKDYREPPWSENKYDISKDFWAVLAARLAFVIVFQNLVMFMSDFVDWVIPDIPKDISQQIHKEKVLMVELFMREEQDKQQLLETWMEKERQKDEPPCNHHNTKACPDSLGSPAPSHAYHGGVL
Method: (§1) (A) Representative Fluo4 fluorescence traces from 3 independent experiments in FRT cells. […] (B,C) Representative apical membrane currents from 3–4 independent experiments in FRT cells expressing human ANO1. […] (D) Representative YFP fluorescence traces in FRT cells expressing human ANO2. […] (E) Representative Fluo4 fluorescence traces from 3 independent experiments in FRT cells. Cells were pretreated with DCPIB for 10 min followed by application of 100 μM ATP. (F) Representative apical membrane currents in FRT cells expressing human ANO1.
(§2) Snapwell inserts containing ANO1(abc) or CFTR-expressing FRT cells were mounted in Ussing chambers (Physiological Instruments, San Diego, CA). The basolateral hemichamber was filled with buffer solution (in mM): 120 NaCl, 5 KCl, 1 MgCl2, 1 CaCl2, 10 D-glucose, 2.5 HEPES, and 25 NaHCO3 (pH 7.4). The apical hemichamber was filled with buffer solution (in mM): 60 NaCl, 60 Na-gluconate, 5 KCl, 1 MgCl2, 1 CaCl2, 10 D-glucose, 2.5 HEPES, and 25 NaHCO3 (pH 7.4). FRT cells were bathed for a 10 min stabilization period and gassed with 5% CO2 and 95% O2 at 37 °C. The apical membrane current was recorded with an EVC4000 Multi-Channel V/I Clamp (World Precision Instruments, Sarasota, FL, USA) and a PowerLab 4/35 (AD Instruments, Castle Hill, Australia).

[1] = tested on: ATP-induced intracellular calcium signaling in FRT cells; assay: Intracellular calcium measurement (Fluo-4) in FRT cells; type: cell-based, rat; details: dose-dependent, 100 μM ATP
Method: as §1
FRT cells were plated on 96-well black-walled microplates and loaded with Fluo-4 NW according to the manufacturer’s protocol (Invitrogen, Carlsbad, CA, USA). […] The 96-well plates were transferred to a plate reader for fluorescence assay.

[2] = tested on: calcium-activated chloride currents in calf pulmonary artery endothelial (CPAE) cells; details: cited from earlier work
NIH-3T3 cells = assay: Cell viability (MTS/MTT) in NIH-3T3 cells; type: cell-based; details: 24 h, up to/at 30 μM
Method: […]. (A) Structure of VI-116. (B) Representative YFP fluorescence traces. The inhibitory effects of VI-116 on VRAC activity were determined using YFP fluorescence assay in LN215 cells. VRAC was activated by application of […] solution for 5 min. (C) Summary of VRAC dose-response (mean ± S.E., n = 4). (D) Summary of VRAC dose−response with 10% FBS (mean ± S.E., n = 4). […].
NIH-3T3 cells were plated on 96-well microplates. After 24 h incubation, cells were treated with VI-116 or DCPIB and incubated for 24 h. The culture medium and the compounds were changed every 12 h. To assess cell proliferation, the cells were incubated with MTS for 1 h. The soluble formazan produced by the cellular reduction of MTS was quantified by measuring the absorbance at 490 nm with an Infinite M200 (Tecan, Grödig, Austria) microplate reader. MTS assay was performed using a CellTiter 96 Aqueous One Solution Cell Proliferation Assay kit (Promega, Madison, WI, USA).

human CFTR = molecular target: T3, human CFTR (Homo sapiens, UniProt P13569); assay: Apical membrane current of CFTR in FRT cells expressing human CFTR; type: cell-based; details: apical membrane current, FRT cells expressing human CFTR, 20 μM forskolin, n = 5; read-out: CFTR chloride channel IC50
T3 construct: expressed in transfected cells; host or cells: Fisher rat thyroid (FRT) cells
T3 sequence (P13569 whole entry): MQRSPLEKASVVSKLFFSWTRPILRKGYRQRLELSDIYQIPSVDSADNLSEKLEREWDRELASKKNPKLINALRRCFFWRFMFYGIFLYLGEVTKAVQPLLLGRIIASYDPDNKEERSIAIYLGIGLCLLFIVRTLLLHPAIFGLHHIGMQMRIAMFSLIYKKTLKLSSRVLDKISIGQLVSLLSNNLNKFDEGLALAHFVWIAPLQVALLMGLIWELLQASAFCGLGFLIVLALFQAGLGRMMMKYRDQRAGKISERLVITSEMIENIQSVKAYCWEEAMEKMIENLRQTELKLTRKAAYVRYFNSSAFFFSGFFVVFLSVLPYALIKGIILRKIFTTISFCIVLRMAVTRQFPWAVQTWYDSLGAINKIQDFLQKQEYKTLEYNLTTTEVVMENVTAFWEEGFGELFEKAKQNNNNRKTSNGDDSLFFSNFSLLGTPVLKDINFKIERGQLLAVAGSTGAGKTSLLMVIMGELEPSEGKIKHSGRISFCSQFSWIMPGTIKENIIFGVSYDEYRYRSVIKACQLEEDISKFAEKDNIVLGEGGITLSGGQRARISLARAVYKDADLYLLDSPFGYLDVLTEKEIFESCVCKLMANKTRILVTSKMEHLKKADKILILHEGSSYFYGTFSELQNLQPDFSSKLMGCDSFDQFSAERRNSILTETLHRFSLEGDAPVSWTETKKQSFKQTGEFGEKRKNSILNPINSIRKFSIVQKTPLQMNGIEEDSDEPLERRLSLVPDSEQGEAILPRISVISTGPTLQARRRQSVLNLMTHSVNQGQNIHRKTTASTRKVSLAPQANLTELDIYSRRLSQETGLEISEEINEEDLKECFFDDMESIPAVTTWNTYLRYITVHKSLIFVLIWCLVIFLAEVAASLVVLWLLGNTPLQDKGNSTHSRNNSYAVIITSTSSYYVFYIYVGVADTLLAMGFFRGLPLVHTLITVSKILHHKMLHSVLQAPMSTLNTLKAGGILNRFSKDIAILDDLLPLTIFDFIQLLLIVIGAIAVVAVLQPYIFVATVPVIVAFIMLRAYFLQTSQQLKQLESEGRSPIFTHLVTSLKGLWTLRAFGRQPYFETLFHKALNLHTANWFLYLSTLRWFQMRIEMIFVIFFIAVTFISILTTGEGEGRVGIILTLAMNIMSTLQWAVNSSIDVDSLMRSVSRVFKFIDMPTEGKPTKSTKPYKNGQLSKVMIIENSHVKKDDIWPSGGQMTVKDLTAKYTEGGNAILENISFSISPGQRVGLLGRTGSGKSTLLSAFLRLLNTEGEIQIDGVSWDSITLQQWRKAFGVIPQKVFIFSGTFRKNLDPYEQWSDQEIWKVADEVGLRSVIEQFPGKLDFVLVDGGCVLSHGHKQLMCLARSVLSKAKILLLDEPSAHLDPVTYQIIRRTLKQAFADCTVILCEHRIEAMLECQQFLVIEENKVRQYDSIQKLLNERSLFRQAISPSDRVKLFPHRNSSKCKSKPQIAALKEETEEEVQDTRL
Description: […]. (C) Summary of dose-response (mean ± S.E., n = 5). […]. (F) Summary of dose−response (mean ± S.E., n = 6).
as §2

hERG = details: 10 μM, Xenopus oocytes overexpressed with hERG; cited from earlier work

T1 sequence (Q12809 whole entry): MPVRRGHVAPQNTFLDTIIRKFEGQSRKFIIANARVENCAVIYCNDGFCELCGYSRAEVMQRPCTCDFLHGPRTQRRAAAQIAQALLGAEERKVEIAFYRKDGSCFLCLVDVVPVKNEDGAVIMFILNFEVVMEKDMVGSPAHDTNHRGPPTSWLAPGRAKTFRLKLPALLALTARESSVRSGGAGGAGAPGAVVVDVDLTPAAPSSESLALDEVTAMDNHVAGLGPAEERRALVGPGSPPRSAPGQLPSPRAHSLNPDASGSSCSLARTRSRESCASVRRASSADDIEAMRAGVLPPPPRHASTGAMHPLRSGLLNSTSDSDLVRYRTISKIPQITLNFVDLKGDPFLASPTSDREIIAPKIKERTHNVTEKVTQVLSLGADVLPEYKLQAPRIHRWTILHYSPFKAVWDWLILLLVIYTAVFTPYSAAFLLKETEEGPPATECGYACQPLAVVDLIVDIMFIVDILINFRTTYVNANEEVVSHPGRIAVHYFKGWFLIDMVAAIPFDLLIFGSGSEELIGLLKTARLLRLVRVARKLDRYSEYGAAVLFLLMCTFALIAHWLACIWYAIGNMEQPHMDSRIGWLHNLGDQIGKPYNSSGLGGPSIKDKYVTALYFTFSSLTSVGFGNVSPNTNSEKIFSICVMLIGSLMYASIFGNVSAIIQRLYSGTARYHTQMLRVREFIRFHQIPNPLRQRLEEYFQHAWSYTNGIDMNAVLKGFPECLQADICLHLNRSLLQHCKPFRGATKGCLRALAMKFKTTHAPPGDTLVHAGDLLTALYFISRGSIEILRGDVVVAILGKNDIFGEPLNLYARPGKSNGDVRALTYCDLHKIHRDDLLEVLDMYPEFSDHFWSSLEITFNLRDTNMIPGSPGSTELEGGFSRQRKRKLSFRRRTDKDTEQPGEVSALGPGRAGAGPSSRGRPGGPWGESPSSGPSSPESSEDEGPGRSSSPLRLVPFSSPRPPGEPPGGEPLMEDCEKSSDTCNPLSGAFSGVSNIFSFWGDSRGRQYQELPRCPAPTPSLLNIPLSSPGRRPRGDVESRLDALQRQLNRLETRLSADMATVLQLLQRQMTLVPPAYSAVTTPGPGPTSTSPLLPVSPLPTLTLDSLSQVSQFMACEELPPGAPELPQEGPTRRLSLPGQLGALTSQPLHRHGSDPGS

In the case of CCCCC1(C2CCCC2)Cc2cc(OCCCC(=O)O)c(Cl)c(Cl)c2C1=O (stereo not drawn) [DCPIB, 4-(2-butyl-6,7-dichlor-2-cyclopentylindan-1-on-5-yl) oxobutyric acid], the “effect on hERG K+ channel activity” value (hERG K+ channel; 10 μM) is reported as “significantly blocked”, the IC50 (hERG K+ channel; thallium flux, HEK293T cells expressing hERG, n = 6) is reported as 11.4 µM and the “effect on Eact-activated ANO1 chloride current” value (ANO1; 10 μM) is reported as “increased”. For the same molecule, the “effect on Eact-activated ANO1 chloride current” value (ANO1; 100 μM) was “almost completely inhibited”, the “effect on ATP-induced intracellular calcium increase” value [1] was “significantly affected; also recorded: strongly blocked; also recorded: potently blocked; also recorded: potently inhibited” and the “effect on calcium-activated chloride currents” value [2] was “did not affect”. The “effect on cell viability” value (NIH-3T3 cells) was “significantly reduced cell viability”, the IC50 (human CFTR) was 71.7 µM and the “effect on hERG” value (hERG) was “did not inhibit”.
